For one assay, the system named is rat striatal slices. The assay is described as follows: In vitro [^3H]-Dopamine release. In kind it is cell-based.
In the next assay the target is T1, dopamine uptake sites (Rattus norvegicus, UniProt P23977).
T1 construct: the striatum was rapidly removed and a crude synaptosomal fraction (P2) was prepared; from tissue; host or cells: rat striatum, crude synaptosomal fraction (P2)
The assay is described as follows: In vitro [^3H]-Dopamine uptake in striatal synaptosomes. The assay is classed as biochemical. The procedure: Subsequently, [^3H]-dopamine (2x10^-7 M final concentration) was added and incubation was continued for 10 min. [^3H]-dopamine uptake was stopped by filtration and the synaptosomes were washed four times with phosphate buffered saline. The amount of [^3H]-dopamine in the synaptosomes was determined by Betaplate liquid scintillation counting. […] Inhibition of DA uptake was performed in duplicate.

[1] abbreviates: K+ (10 mM) evoked release, rat striatal slices, compounds added at 10^-8 M and 10^-6 M, table does not say which concentration.
[2] abbreviates: rat striatal synaptosomes, 10^-9 to 10^-5 M, read-out: Functional activity re-uptake [^3H]-Dopamine pIC50 (converted).

Each structure is given as a SMILES string. Where two headings read alike, the source gives them in different places.

T1 sequence (P23977 whole entry): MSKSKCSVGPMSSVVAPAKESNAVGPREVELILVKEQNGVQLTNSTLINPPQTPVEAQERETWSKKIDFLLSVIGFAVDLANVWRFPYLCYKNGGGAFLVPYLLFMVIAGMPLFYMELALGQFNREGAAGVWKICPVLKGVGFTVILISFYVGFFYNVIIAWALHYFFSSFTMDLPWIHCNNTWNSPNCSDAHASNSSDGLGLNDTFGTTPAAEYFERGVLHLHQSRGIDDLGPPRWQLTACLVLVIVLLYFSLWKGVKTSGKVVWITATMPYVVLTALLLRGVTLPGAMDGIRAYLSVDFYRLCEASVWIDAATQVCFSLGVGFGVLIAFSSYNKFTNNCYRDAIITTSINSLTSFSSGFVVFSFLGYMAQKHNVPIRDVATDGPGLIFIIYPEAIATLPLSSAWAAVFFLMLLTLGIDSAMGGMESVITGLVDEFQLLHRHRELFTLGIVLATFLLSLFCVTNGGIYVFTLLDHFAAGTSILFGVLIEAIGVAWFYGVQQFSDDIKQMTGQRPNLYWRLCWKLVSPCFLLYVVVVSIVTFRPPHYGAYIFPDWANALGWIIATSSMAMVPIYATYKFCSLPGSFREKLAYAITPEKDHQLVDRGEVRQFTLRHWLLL

For the compound `c1cnc2[nH]cc(C[C@H]3CCCN3)c2c1` (stereo in doubt) [Compound 96, (R)-3-pyrrolidin-2-ylmethyl-1H-pyrrolo-[2,3-b]pyridine, reference compound], in the assay with rat striatal slices, the “Functional activity release [^3H]-Dopamine % of control” value is 124 % of control. For the compound `CN1CCC[C@@H]1Cc1c[nH]c2ncccc12` (stereo in doubt) [Compound 98, reference compound], the “Functional activity release [^3H]-Dopamine % of control” value in the assay on rat striatal slices (setting [1]) is given as 132 % of control. Besides, on dopamine uptake sites (setting [2]), the IC50 is greater than 10 µM.

For the compound `CN1CCC[C@H]1Cc1c[nH]c2ncccc12` (stereo in doubt) [Compound 99, reference compound], in the assay with rat striatal slices (setting [1]), the “Functional activity release [^3H]-Dopamine % of control” value is 112 % of control. Turning to `c1cnc2[nH]cc(C3CCCNC3)c2c1` (centres unmarked) [Compound 6, 3-piperidin-3-yl-1 H-pyrrolo[2,3-b]pyridine], the “Functional activity release [^3H]-Dopamine % of control” value with rat striatal slices (setting [1]) was 139 % of control. The compound also had an IC50 at dopamine uptake sites of 3.98 µM. In the case of `Clc1ccc2c(C3CCCNC3)c[nH]c2n1` (centres unmarked) [Compound 13, 6-chloro-3-piperidin-3-yl-1 H-pyrrolo[2,3-b]pyridine], in the assay on rat striatal slices (setting [1]), the “Functional activity release [^3H]-Dopamine % of control” value was 174 % of control. On dopamine uptake sites (setting [2]), the IC50 is 1.58 µM. On the same counts, the results for `c1cnc2[nH]c([C@H]3CCCNC3)cc2c1` [Compound 26A, (S)-2-piperidin-3-yl-1H-pyrrolo[2,3-b]pyridine] are 139 % of control and 2.51 µM.

As for `c1cnc2[nH]c([C@@H]3CCCNC3)cc2c1` [Compound 26B, (R)-2-piperidin-3-yl-1H-pyrrolo[2,3-b]pyridine], in the assay on rat striatal slices (setting [1]), the “Functional activity release [^3H]-Dopamine % of control” value was 121 % of control. The IC50 at dopamine uptake sites is 0.631 µM. For the compound `Clc1ccc2cc(C3CCCNC3)[nH]c2n1` (centres unmarked) [Compound 32, 6-chloro-2-piperidin-3-yl-1H-pyrrolo[2,3-b]pyridine], the “Functional activity release [^3H]-Dopamine % of control” value in the assay with rat striatal slices (setting [1]) is 173 % of control. On to `Clc1ccc2cc([C@@H]3CCCNC3)[nH]c2n1` [Compound 32B, (R)-6-chloro-2-piperidin-3-yl-1H-pyrrolo[2,3-b]pyridine], for which the “Functional activity release [^3H]-Dopamine % of control” value in the assay with rat striatal slices (setting [1]) is 170 % of control. Also, the IC50 against dopamine uptake sites was 0.398 µM. With `c1cnc2[nH]c(C[C@H]3CCCN3)cc2c1` [Compound 39A, (R)-2-pyrrolidin-2-ylmethyl-1H-pyrrolo[2,3-b]pyridine], the “Functional activity release [^3H]-Dopamine % of control” value with rat striatal slices was 151 % of control. For `c1cnc2[nH]c(C[C@@H]3CCCN3)cc2c1` [Compound 39B, (S)-2-pyrrolidin-2-ylmethyl-1H-pyrrolo[2,3-b]pyridine], the “Functional activity release [^3H]-Dopamine % of control” value in the assay on rat striatal slices (setting [1]) is reported as 133 % of control. Turning to `CN1CCC[C@@H]1Cc1cc2cccnc2[nH]1` [Compound 41A, (R)-2-(1-Methyl-pyrrolidin-2-ylmethyl)-1H-pyrrolo[2,3-b]pyridine], in the assay on rat striatal slices (setting [1]), the “Functional activity release [^3H]-Dopamine % of control” value is 100 % of control. Regarding `Clc1ccc2cc(C[C@H]3CCCN3)[nH]c2n1` [Compound 45A, (R)-6-chloro-2-pyrrolidin-2-ylmethyl-1H-pyrrolo[2,3-b]pyridine], the “Functional activity release [^3H]-Dopamine % of control” value in the assay with rat striatal slices (setting [1]) is reported as 115 % of control. `Clc1ccc2cc(C[C@@H]3CCCN3)[nH]c2n1` [Compound 45B, (S)-6-chloro-2-pyrrolidin-2-ylmethyl-1H-pyrrolo[2,3-b]pyridine]: in the assay on rat striatal slices (setting [1]), the “Functional activity release [^3H]-Dopamine % of control” value is reported as 153 % of control. Besides, on dopamine uptake sites (setting [2]), the IC50 is 2.51 µM. With `Brc1ccc2cc(C[C@H]3CCCN3)[nH]c2n1` [Compound 46A, (R)-6-bromo-2-pyrrolidin-2-ylmethyl-1H-pyrrolo[2,3-b]pyridine], in the assay with rat striatal slices (setting [1]), the “Functional activity release [^3H]-Dopamine % of control” value is listed as 92 % of control. Take `Brc1ccc2cc(C[C@@H]3CCCN3)[nH]c2n1` [Compound 46B, (S)-6-bromo-2-pyrrolidin-2-ylmethyl-1H-pyrrolo[2,3-b]pyridine]: in the assay on rat striatal slices (setting [1]), the “Functional activity release [^3H]-Dopamine % of control” value was 123 % of control. `Fc1ccc2cc(C[C@H]3CCCN3)[nH]c2n1` [Compound 47A, (R)-6-fluoro-2-pyrrolidin-2-ylmethyl-1H-pyrrolo[2,3-b]pyridine]: the “Functional activity release [^3H]-Dopamine % of control” value with rat striatal slices (setting [1]) is given as 137 % of control. On to `Fc1ccc2cc(C[C@@H]3CCCN3)[nH]c2n1` [Compound 47B, (S)-6-fluoro-2-pyrrolidin-2-ylmethyl-1H-pyrrolo[2,3-b]pyridine], for which the “Functional activity release [^3H]-Dopamine % of control” value in the assay with rat striatal slices (setting [1]) is reported as 128 % of control. Moreover, the IC50 on dopamine uptake sites (setting [2]) was 3.98 µM. For the compound `COc1ccc2cc(C[C@H]3CCCN3)[nH]c2n1` [Compound 49, (R)-6-methoxy-2-pyrrolidin-2-ylmethyl-1H-pyrrolo[2,3-b]pyridine], the “Functional activity release [^3H]-Dopamine % of control” value in the assay on rat striatal slices is reported as 160 % of control. `Brc1cnc2[nH]c(C[C@H]3CCCN3)cc2c1` [Compound 52A, (R)-5-bromo-2-pyrrolidin-2-ylmethyl-1H-pyrrolo[2,3-b]pyridine]: the “Functional activity release [^3H]-Dopamine % of control” value with rat striatal slices is given as 135 % of control. `c1cnc2[nH]c(C3CCNC3)cc2c1` (centres unmarked) [Compound 78, 2-pyrrolidin-3-yl-1H-pyrrolo[2,3-b]pyridine]: the “Functional activity release [^3H]-Dopamine % of control” value with rat striatal slices (setting [1]) is recorded as 154 % of control. Besides, the IC50 on dopamine uptake sites (setting [2]) was 2 µM. For `c1cnc2[nH]c([C@H]3CCNC3)cc2c1` [Compound 78A, (S)-2-pyrrolidin-3-yl-1H-pyrrolo[2,3-b]pyridine] the same measures were 109 % of control and 3.98 µM. On the same counts, the results for `c1cnc2[nH]c([C@@H]3CCNC3)cc2c1` [Compound 78B, (R)-2-pyrrolidin-3-yl-1H-pyrrolo[2,3-b]pyridine] are 187 % of control and 1.58 µM. In the case of `c1cnc2cc(C3CCNC3)[nH]c2c1` (centres unmarked) [Compound 79, 2-pyrrolidin-3-yl-1H-pyrrolo[3,2-b]pyridine], in the assay with rat striatal slices (setting [1]), the “Functional activity release [^3H]-Dopamine % of control” value is on record as 119 % of control. On dopamine uptake sites (setting [2]), the IC50 was 6.31 µM. Regarding `c1cnc2cc(C[C@H]3CCCN3)[nH]c2c1` [Compound 81A, (R)-2-pyrrolidin-2-ylmethyl-1H-pyrrolo[3,2-b]pyridine], the “Functional activity release [^3H]-Dopamine % of control” value in the assay with rat striatal slices is 153 % of control. Consider `c1cnc2cc(C[C@@H]3CCCN3)[nH]c2c1` [Compound 81B, (S)-2-pyrrolidin-2-ylmethyl-1H-pyrrolo[3,2-b]pyridine], for which the “Functional activity release [^3H]-Dopamine % of control” value in the assay on rat striatal slices is recorded as 120 % of control. Consider `COc1ccc2[nH]c(C[C@H]3CCCN3)cc2n1` [Compound 85, (R)-5-methoxy-2-pyrrolidin-2-ylmethyl-1H-pyrrolo[3,2-b]pyridine], for which the “Functional activity release [^3H]-Dopamine % of control” value in the assay on rat striatal slices is given as 131 % of control. For the compound `c1cnc2c(C[C@H]3CCCN3)c[nH]c2c1` [Compound 88, (R)-3-pyrrolidin-2-ylmethyl-1H-pyrrolo[3,2-b]pyridine], the “Functional activity release [^3H]-Dopamine % of control” value in the assay with rat striatal slices (setting [1]) is recorded as 110 % of control. For the same compound, on dopamine uptake sites (setting [2]), the IC50 was 7.94 µM. `CC(NC(C)(C)C)C(=O)c1cccc(Cl)c1` (centres unmarked) [bupropion, reference compound]: the “Functional activity release [^3H]-Dopamine % of control” value with rat striatal slices (setting [1]) is 124 % of control. The IC50 on dopamine uptake sites (setting [2]) was 3.98 µM. As for `O=c1cccc2n1C[C@@H]1CNC[C@H]2C1` [cytisine, reference compound], the “Functional activity release [^3H]-Dopamine % of control” value in the assay with rat striatal slices (setting [1]) was 136 % of control. The compound also came in with an IC50 on dopamine uptake sites greater than 10 µM.

For the compound `CN1CCCC1c1cccnc1` (centres unmarked) [nicotine, reference compound], the “Functional activity release [^3H]-Dopamine % of control” value in the assay on rat striatal slices (setting [1]) is 180 % of control. This compound gave an IC50 on dopamine uptake sites greater than 10 µM.

Values taken from EP2041131B1, “AZAINDOLE DERIVATIVES WITH A COMBINATION OF PARTIAL NICOTINIC ACETYLCHOLINE RECEPTOR AGONISM AND DOPAMINE REUPTAKE INHIBITION” (Abbott Healthcare Products B.V., priority 2006, dated 2008).
